Measured values taken from patent publication US9409880B2, “Modulators of TLR3/dsRNA complex and uses thereof” (The Regents of the University of Colorado, a body corporate, priority 2011, dated 2016).

How the values were obtained:
[1] = system: TNF-α and IL-1β production; experiment: Cytokine-specific ELISA in RAW 264.7 cells; assay type: cell-based, Mouse; details: 27 μM compound
Description: A secondary cell assay was used to confirm that compound 4a inhibits the downstream signaling transduction mediated by the formation of the TLR3/dsRNA complex. In addition to TLR3 signaling suppression, the release of the proinflammatory cytokines, TNF-α and IL-1β, were also studied.
RAW cells were planted in 6-well plates at 1,000,000 cells per well with 3 mL of medium (RPMI 1640 medium, supplemented with 10% FBS, penicillin (100 U/mL) and streptomycin ([…])) and grown for 24 h at 37° C. in a 5% CO2 humidified incubator. After 24 h, non-adherent cells and media were removed and replaced with fresh RPMI 1640 medium (3 mL/well). […] In additionally wells, one well was treated with only 4a (27 μM) and the other was treated with nothing. Plates were then incubated for an additional 24 h. […] Approximately 400 μL of supernatant were collected into new tubes, frozen at −80° C. until ready for cytokine measurement. The production of the cytokine interleukin-1β (IL-1β) and TNF-α was quantified with enzyme-linked immunosorbent assays (ELISA) using cytokine-specific capture antibodies, biotinylated monoclonal detection antibodies, and recombinant human cytokine standards according to commercially available ELISA kits from R&D Systems. The cytokine level in each sample was determined in duplicate.

[2] = system: RAW 264.7 cells; experiment: WST-1 cytotoxicity assay; assay type: cell-based, Mouse; details: WST-1 methodology; different concentrations
Description: This assay was conducted in a 96-well plate with 5,000 cells in 100 μL media (RPMI 1640 medium, supplemented with 10% FBS, penicillin (100 U/mL) and streptomycin ([…])) per well. Eight wells were left empty for blank controls. The plates were incubated (37° C., 5% CO2) overnight to allow the cells to attach to the wells. WST-1 proliferation reagent (Roche) was added to the cells (10 μL per well) and continued to incubate for 1-2 h at 37° C. Plates were checked visually by comparing the colour of wells with media without cells (colour remained pink) with wells contained untreated cells (colour is orange). When a clear difference could be seen by naked eye, results were read by spectrophotometer at 490 nm. Cytotoxicity (%) was determined using the following formula: Cytotoxicity (%)=(1−[Compounds (OD490)−Background (OD490)]/[Control (OD490)−Background (OD490)])×100.

[3] = target: T1, TLR3 (Homo sapiens, UniProt O15455); experiment: Fluorescence anisotropy assay, competition with Rhodamine labeled Poly IC; assay type: binding
T1 construct: purchased R &D
T1 sequence (O15455 24-904): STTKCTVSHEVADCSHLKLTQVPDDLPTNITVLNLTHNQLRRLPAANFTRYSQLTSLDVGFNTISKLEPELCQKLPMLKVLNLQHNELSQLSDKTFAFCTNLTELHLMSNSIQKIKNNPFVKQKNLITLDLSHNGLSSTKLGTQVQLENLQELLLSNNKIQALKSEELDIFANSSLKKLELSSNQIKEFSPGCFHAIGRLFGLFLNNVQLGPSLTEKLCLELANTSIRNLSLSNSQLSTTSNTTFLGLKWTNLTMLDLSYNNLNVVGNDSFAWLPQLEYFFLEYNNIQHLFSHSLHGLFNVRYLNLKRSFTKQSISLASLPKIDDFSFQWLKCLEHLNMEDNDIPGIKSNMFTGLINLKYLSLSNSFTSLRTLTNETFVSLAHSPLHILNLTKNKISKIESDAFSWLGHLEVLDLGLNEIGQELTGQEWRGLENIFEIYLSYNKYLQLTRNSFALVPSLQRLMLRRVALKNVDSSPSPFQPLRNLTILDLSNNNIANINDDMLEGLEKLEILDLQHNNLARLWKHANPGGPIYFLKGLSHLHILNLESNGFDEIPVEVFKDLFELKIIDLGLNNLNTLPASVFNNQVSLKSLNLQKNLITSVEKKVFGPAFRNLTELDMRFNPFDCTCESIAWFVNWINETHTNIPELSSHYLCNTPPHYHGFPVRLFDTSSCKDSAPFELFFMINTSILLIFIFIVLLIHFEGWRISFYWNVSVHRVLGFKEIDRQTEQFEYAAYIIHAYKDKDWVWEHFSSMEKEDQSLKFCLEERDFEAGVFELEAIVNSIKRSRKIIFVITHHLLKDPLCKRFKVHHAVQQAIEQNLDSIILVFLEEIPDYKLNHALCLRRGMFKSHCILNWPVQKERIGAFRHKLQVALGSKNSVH
Description: The anisotropy of Rhodamine labeled Poly IC increased from approximately 0.116 to 0.171 upon addition of TLR3 (excitation=546 nm; emission=576 nm).
In 500 μL Tris buffer (pH=7.2) add 5 μL (1 μg/mL) Rhodamine labeled Poly IC (Invivogen), test the anisotropy at excitation of 546 nm and emission of 576 nm (Horiba Fluorolog 3). An addition 3 μL (20 μM) of TLR3 (R &D) was added in the buffer, then test the anisotropy again. Following, 4a was added in the buffer from 0 to 68 μM, and the fluorescence anisotropy was tested when the concentration was changed.

[4] = system: XMRV-induced IP-10/CXCL10 production; experiment: XMRV-induced IP-10 mRNA (RT-PCR) in LNCaP cells; assay type: cell-based, human
[5] = target: T2, TLR2/6 (Mus musculus, UniProt Q9EPW9+Q9QUN7); experiment: RAW264.7 cell nitric oxide TLR selectivity assay (FSL-1); assay type: cell-based; details: 27 μM
T2 construct: endogenous in cells; host or cells: RAW 264.7
T2 sequence (Q9QUN7 25-784): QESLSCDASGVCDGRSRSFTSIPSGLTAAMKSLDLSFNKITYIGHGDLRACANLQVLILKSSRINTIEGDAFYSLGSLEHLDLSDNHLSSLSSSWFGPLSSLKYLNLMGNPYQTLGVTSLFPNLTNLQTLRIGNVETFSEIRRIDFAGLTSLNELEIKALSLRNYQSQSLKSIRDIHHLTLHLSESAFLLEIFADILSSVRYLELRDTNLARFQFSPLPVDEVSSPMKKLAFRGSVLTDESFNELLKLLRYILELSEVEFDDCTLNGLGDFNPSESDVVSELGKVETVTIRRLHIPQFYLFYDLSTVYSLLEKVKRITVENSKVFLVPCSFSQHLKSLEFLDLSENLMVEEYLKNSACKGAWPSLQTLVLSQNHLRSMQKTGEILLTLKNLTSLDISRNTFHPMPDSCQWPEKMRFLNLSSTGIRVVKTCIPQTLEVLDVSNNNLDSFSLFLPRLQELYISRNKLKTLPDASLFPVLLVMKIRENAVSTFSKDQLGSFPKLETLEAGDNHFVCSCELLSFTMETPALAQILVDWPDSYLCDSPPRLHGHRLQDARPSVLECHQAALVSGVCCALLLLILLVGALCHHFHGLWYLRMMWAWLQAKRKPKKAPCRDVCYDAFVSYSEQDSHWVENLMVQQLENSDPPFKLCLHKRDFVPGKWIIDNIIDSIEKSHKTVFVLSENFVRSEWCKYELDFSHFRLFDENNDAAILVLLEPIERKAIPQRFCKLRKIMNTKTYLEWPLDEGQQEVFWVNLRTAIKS
T2 sequence (Q9EPW9 28-795): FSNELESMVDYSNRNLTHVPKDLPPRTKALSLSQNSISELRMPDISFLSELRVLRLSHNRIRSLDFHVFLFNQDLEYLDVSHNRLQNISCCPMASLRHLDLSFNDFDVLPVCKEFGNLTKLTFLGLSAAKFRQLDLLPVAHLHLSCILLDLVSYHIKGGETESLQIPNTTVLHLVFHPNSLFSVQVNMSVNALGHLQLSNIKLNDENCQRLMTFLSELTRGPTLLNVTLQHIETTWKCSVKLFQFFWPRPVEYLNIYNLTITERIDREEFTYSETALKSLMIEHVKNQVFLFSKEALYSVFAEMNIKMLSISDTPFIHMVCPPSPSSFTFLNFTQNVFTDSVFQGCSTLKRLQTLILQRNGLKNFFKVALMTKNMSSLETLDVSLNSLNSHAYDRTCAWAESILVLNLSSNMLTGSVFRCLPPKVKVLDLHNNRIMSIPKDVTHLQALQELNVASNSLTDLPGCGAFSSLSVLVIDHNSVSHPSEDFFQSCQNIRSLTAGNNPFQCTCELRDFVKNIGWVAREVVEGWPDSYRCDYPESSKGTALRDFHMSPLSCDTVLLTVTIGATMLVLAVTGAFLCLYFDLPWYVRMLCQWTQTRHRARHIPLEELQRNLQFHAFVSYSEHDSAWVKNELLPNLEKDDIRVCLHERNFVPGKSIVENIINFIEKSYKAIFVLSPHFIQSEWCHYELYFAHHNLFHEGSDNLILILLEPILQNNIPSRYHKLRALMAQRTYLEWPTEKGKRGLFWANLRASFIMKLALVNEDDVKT

[6] = system: MCP-1; experiment: In vivo poly IC-induced serum MCP-1 in wild-type mice; details: pretreatment 30 minutes prior to 100 μg poly IC i.v., serum 4 hours after
Description: Wild-type mice were treated with a single 100 μg of poly IC i.v. injection and the serum concentration of MCP-1 was investigated 4 hours after the treatment. […] Pretreatment with compound 4a at various concentrations 30 minutes prior to poly I:C application decreased MCP-1 production by about 50%.

- TLR3 binding competition with dsRNA [3]: competes with dsRNA in binding to TLR3
- Ki ([3]; competes with dsRNA for binding to TLR3): 2.96 ± 0.32 µM
Compound: O=C(N[C@H](Cc1ccccc1)C(=O)O)c1sc2cc(F)ccc2c1Cl [Compound 4a, (R)-2-(3-chloro-6-fluorobenzo[b]thiophene-2-carboxamido)-3-phenylpropanoic acid]
- IL-1β production [1]: inhibits
- TNF-α production [1]: inhibits
- toxicity in RAW 264.7 cells [2]: did not show any significant toxicity
- anisotropy of Rhodamine labeled Poly IC ([3]; compound concentration increased to 68 μM): decreased the anisotropy to background levels
- XMRV-induced IP-10 production ([4]; 50 μM, RT-PCR of IP-10 mRNA): inhibits XMRV-induced IP-10 production
- XMRV-induced IP-10/CXCL10 production ([4]; 10 and 25 μM, RT-PCR): inhibition of XMRV-induced IP-10/CXCL10 production
- effect on TLR2/6 signaling [5]: without significantly affecting other TLRs
- decrease of MCP-1 production [6]: about 50%
